Data published in US10662203B2, “Pyrido[2,3-b]indole compounds for the treatment and prophylaxis of bacterial infection” (Hoffmann-La Roche Inc., priority 2017, dated 2020).

Legend:
Assay type in all cases: cell-based
[1] = tested on: A. baumannii (ATCC17978); test: 50% growth inhibitory concentration (IC50) determination assay; conditions: Iso-Sensitest broth, 0.098 = detection limit
Summary of the method: (§1)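 Compounds were two-fold serially diluted from 50 to 0.097 μM final in Iso-Sensitest broth, inoculated to ~5×10^5 CFU/mL and incubated at 35±2° C. Growth was followed by OD at 600 nm every 20 minutes for 16 h.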

[2] = tested on: K. pneumoniae (ATCC10031); test: as above; conditions: Iso-Sensitest broth, 0.098 = detection limit
Summary of the method: as §1

[3] = tested on: S. aureus (ATCC29213); test: as above; conditions: Iso-Sensitest broth, 0.098 = detection limit
Summary of the method: as §1

[4] = Cytotoxicity assay (HepG2, CellTiter-Blue cell viability); conditions: human; HepG2 cells, 3 days treatment; "*": the detection limit; read-out: CC50
Experimental: The cytotoxicity of compounds of present invention was assessed by HepG2 assay. HepG2 cells (ATCC HB-8065™) were seeded into 96-well plates (1.2×10^4 cells per well) and treated with compounds for 3 days, cell viability was measured at day 3 post compound treatment using the CellTiter-Blue® Cell Viability Assay (Promega, Cat. No. G8082). 20 μL of Cell titer blue buffer were added to each well of the cells, which were incubated for 3 hours at 37° C., and the fluorescence value was measured by a plate reader (Molecular Device SpectraMax M2). The CC50 value of each compound is plotted with GraphPad Prism using four parameter logistic equation.

[5] = Acinetobacter baumannii, ATCC17978, A. baumannii ATCC17978

Row | SMILES | IC50 [1, 5] [µM] | IC50 ([2]; Klebsiella pneumoniae) [µM] | IC50 ([3]; Staphylococcus aureus) [µM] | CC50 at 3 days [4] [µM] | IC50 ([1]; A. baumannii ATCC17978) [µM] | IC50 [2] [µM] | IC50 [3] [µM]
1 | CNc1cc(F)c(F)c2c1[nH]c1ncc(-c3cnc4c(c3)c(=O)c(C(=O)O)cn4C)c(N3CC[C@H](CO)C3)c12 [Example 1.164] | 0.472 | < 0.098 | < 0.098 | 99.3 |  |  | 
2 | CNc1cc(F)c(F)c2c1[nH]c1ncc(-c3cnc4c(c3)c(=O)c(C(=O)O)cn4C)c(N3C[C@H](O)[C@@H](F)C3)c12 [Example 1.82] | 0.748 | < 0.098 | < 0.098 | > 100 |  |  | 
3 | CNc1cc(F)cc2c1[nH]c1ncc(-c3cnc4c(c3)c(=O)c(C(=O)O)cn4NC)c(N3CC4[C@@H](C3)OCCN4C)c12 (some centres unmarked) [Example 1.113] | 0.586 | < 0.098 | < 0.098 | > 100 |  |  | 
4 | CNc1cc(F)c(F)c2c1[nH]c1ncc(-c3cnc4c(c3)c(=O)c(C(=O)O)cn4C)c(N3CCC(F)(CN)C3)c12 (centres unmarked) [Example 1.23] | 0.507 | < 0.098 | < 0.098 | > 100 |  |  | 
5 | CNc1cc(F)c(F)c2c1[nH]c1ncc(-c3cnc4c(c3)c(=O)c(C(=O)O)cn4C3CCNC3)c(N(C)C)c12 (centres unmarked) [Example 1.150] |  |  |  | > 100 | 0.273 | < 0.098 | < 0.098
6 | CNCCn1cc(C(=O)O)c(=O)c2cc(-c3cnc4[nH]c5c(NC)cc(F)c(F)c5c4c3N(C)C)cnc21 [Example 1.26] | 0.569 | < 0.098 | < 0.098 | 32.5 |  |  | 
7 | CNc1cc(F)cc2c1[nH]c1ncc(-c3cnc4c(c3)c(=O)c(C(=O)O)cn4C(C)CO)c(N3CCOCC3)c12 (centres unmarked) [Example 1.45] | 0.472 | < 0.098 | < 0.098 | > 100 |  |  | 
8 | CNc1cc(F)cc2c1[nH]c1ncc(-c3cnc4c(c3)c(=O)c(C(=O)O)cn4NC)c(N3CC[C@H]4CCN(C)C4C3)c12 (some centres unmarked) [Example 1.212] | 0.18 | < 0.098 | 0.168 | 33.9 |  |  | 
9 | CNc1cc(F)cc2c1[nH]c1ncc(-c3cnc4c(c3)c(=O)c(C(=O)O)cn4Cc3cnccn3)c(N3CCOCC3)c12 [Example 1.58] | 0.643 |  | < 0.098 | > 100 |  |  | 
10 | CNc1cc(F)c(F)c2c1[nH]c1ncc(-c3cnc4c(c3)c(=O)c(C(=O)O)cn4C)c(N3CCC(N)(C(F)(F)F)C3)c12 (centres unmarked) [Example 1.27] | 0.602 |  | < 0.098 | 28.2 |  |  | 
11 | CNc1cc(F)cc2c1[nH]c1ncc(-c3cnc4c(c3)c(=O)c(C(=O)O)cn4C)c(N3CCC(CO)C3)c12 (centres unmarked) [Example 1.54] | 0.461 | < 0.098 | < 0.098 | > 100 |  |  | 
12 | CNc1cc(F)c(F)c2c1[nH]c1ncc(-c3cnc4c(c3)c(=O)c(C(=O)O)cn4C3CCNC3)c(N3CCSCC3)c12 (centres unmarked) [Example 1.98] | 0.744 | 0.107 | 8.84 | > 100 |  |  | 
13 | CCNc1cc(F)c(F)c2c1[nH]c1ncc(-c3cnc4c(c3)c(=O)c(C(=O)O)cn4C3CCNC3)c(N(C)C)c12 (centres unmarked) [Example 1.140] | 0.631 | < 0.098 | < 0.098 | > 100 |  |  | 
14 | CCNc1cc(F)cc2c1[nH]c1ncc(-c3cnc4c(c3)c(=O)c(C(=O)O)cn4CC)c(-n3cc(CN)c(C(F)(F)F)n3)c12 [Example 1.15] | 0.403 | < 0.098 | < 0.098 | > 100 |  |  | 
15 | CNc1cc(F)c(F)c2c1[nH]c1ncc(-c3cnc4c(c3)c(=O)c(C(=O)O)cn4C)c(N3CCC4(CCN(C)C4)CC3)c12 [Example 1.231] | 0.542 | < 0.098 | < 0.098 | 37.2 |  |  | 
16 | CNc1cc(F)c(F)c2c1[nH]c1ncc(-c3cnc4c(c3)c(=O)c(C(=O)O)cn4C)c(N3CC[C@@H](O)C3)c12 [Example 1.151] | 0.311 | < 0.098 | < 0.098 | 37.2 |  |  | 

Row | SMILES | IC50 [1, 5] [µM] | IC50 ([2]; Klebsiella pneumoniae) [µM] | IC50 ([3]; Staphylococcus aureus) [µM] | CC50 at 3 days [4] [µM] | IC50 ([1]; A. baumannii ATCC17978) [µM] | IC50 [2] [µM] | IC50 [3] [µM]
17 | CNc1cc(F)c(F)c2c1[nH]c1ncc(-c3cnc4c(c3)c(=O)c(C(=O)O)cn4CC3CCN(C)CC3)c(N(C)C)c12 [Example 1.32] | 0.353 | < 0.098 | < 0.098 | 50.1 |  |  | 
18 | CNc1cc(F)c(F)c2c1[nH]c1ncc(-c3cnc4c(c3)c(=O)c(C(=O)O)cn4C)c(N3CCCC(CN(C)C)C3)c12 (centres unmarked) [Example 1.80] | 0.132 | < 0.098 | < 0.098 | 27.5 |  |  | 
19 | CNc1cc(F)cc2c1[nH]c1ncc(-c3cnc4c(c3)c(=O)c(C(=O)O)cn4C)c(N3CCC(C)(O)C3)c12 (centres unmarked) [Example 1.59] | 0.658 | < 0.098 | < 0.098 | 27.9 |  |  | 
20 | CNc1cc(F)c(F)c2c1[nH]c1ncc(-c3cnc4c(c3)c(=O)c(C(=O)O)cn4C)c(N3C[C@H](C)[C@@H](O)C3)c12 [Example 1.83] | 0.519 | < 0.098 | < 0.098 | 26.4 |  |  | 
21 | CNc1cc(F)c(F)c2c1[nH]c1ncc(-c3cnc4c(c3)c(=O)c(C(=O)O)cn4C)c(N3CCC4(CCCN4C)C3)c12 (centres unmarked) [Example 1.239] | 0.104 | < 0.098 | < 0.098 | 32.9 |  |  | 
22 | CNc1cc(F)c(F)c2c1[nH]c1ncc(-c3cnc4c(c3)c(=O)c(C(=O)O)cn4C)c(N3CC[C@H](O)C3)c12 [Example 1.163] | 0.171 | < 0.098 | < 0.098 | 28.9 |  |  | 
23 | CNc1cc(F)c(F)c2c1[nH]c1ncc(-c3cnc4c(c3)c(=O)c(C(=O)O)cn4CC(C)(C)O)c(N3CCOCC3)c12 [Example 1.35] | 0.663 | < 0.098 | < 0.098 | 76.9 |  |  | 
24 | CNc1cc(F)c(F)c2c1[nH]c1ncc(-c3cnc4c(c3)c(=O)c(C(=O)O)cn4CC3COCCN3)c(N(C)C)c12 (centres unmarked) [Example 1.03] | 0.437 | < 0.098 | < 0.098 | 38.1 |  |  | 
25 | CNc1cc(F)c(F)c2c1[nH]c1ncc(-c3cnc4c(c3)c(=O)c(C(=O)O)cn4C(C)CO)c(N3CCOCC3)c12 (centres unmarked) [Example 1.51] | 0.533 | < 0.098 | < 0.098 | > 100 |  |  | 
26 | CNc1cc(F)c(F)c2c1[nH]c1ncc(-c3cnc4c(c3)c(=O)c(C(=O)O)cn4NC)c(N3CC[C@H]4CN(C)C4C3)c12 (some centres unmarked) [Example 1.214] | 0.111 | < 0.098 | < 0.098 | 40.8 |  |  | 
27 | CNc1cc(F)c(F)c2c1[nH]c1ncc(-c3cnc4c(c3)c(=O)c(C(=O)O)cn4C)c(N3CCC4(CCCN(CCO)C4)C3)c12 (centres unmarked) [Example 1.194] | 0.199 | < 0.098 | < 0.098 | 72 |  |  | 
28 | [2H]C([2H])([2H])Nc1cc(F)c(F)c2c1[nH]c1ncc(-c3cnc4c(c3)c(=O)c(C(=O)O)cn4C3CCNC3)c(N(C)C)c12 (centres unmarked) [Example 1.64] | 0.32 | < 0.098 | < 0.098 | > 100 |  |  | 
29 | CNc1cc(F)cc2c1[nH]c1ncc(-c3cnc4c(c3)c(=O)c(C(=O)O)cn4[C@@H](C)CO)c(N3CCOCC3)c12 [Example 1.216] | 0.424 | < 0.098 | < 0.098 | > 100 |  |  | 
30 | CNc1cc(F)c(F)c2c1[nH]c1ncc(-c3cnc4c(c3)c(=O)c(C(=O)O)cn4C)c(N3CCC(C)(CO)C3)c12 (centres unmarked) [Example 1.84] | 0.326 | 0.11 | < 0.098 | 26.8 |  |  | 
31 | CNc1cc(F)c(F)c2c1[nH]c1ncc(-c3cnc4c(c3)c(=O)c(C(=O)O)cn4C)c(N3CC[C@@H](CO)C3)c12 [Example 1.165] | 0.336 | < 0.098 | < 0.098 | > 100 |  |  | 
